A value given as a limit tells only on which side of the number the result lay.

By IC50 is commonly meant the midpoint of a concentration-inhibition curve. A low value points to inhibition by little substance.

For one assay, the system named is LTB4 biosynthesis in human polymorphonuclear leukocytes (PMNs). The assay is described as follows: Inhibition of LTB4 biosynthesis in human polymorphonuclear leukocytes (PMNs). The settings on record: Homo sapiens, Leukocyte, Table 4, Pyridyl; values with <: see footnote d, Table 1. The class given is cell-based. The protocol: Inhibition of LTB4, biosynthesis in human polymorphonuclear leukocytes (PMNs)
The inhibition of leukotriene biosynthesis is measured by determining whether and to what extent test compounds can inhibit LTB4 production from endogenous arachidonic acid in human peripheral blood leukocytes.
To 48-well tissue culture plates was added a solution of the test compound followed by addition of human polymorphonuclear leukocytes isolated from peripheral blood at a density of 1.5×10^6 cells/well. Culture plates were preincubated for fifteen minutes with shaking at 28° C. Cells were stimulated with calcium ionophore A23187 at a final concentration of 2.5 μM for an additional ten minutes. The reaction was terminated by the addition of an EGTA solution (10 mM final concentration)followed by centrifugation at 1500 rpm at 10° C. Supernatants were stored at -70° C. LTB4 levels were determined by RIA using a commercially available kit. Nonlinear regression analysis was used to calculate. IC50 values.
The following tables show % inhibition of LTB4 biosynthesis by compounds of the invention at test concentrations indicated, with the determined IC50 shown in μM.
`Clc1ccc2oc(NC(CC3CCCCC3)c3cccnc3)nc2c1` (stereo not shown) [Compound 86] displayed an IC50 of 23 nM.

As to `Clc1ccc2oc(NC(CC3CCCCC3)c3ccccn3)nc2c1` (stereo not shown) [Compound 91], it took 2 nM to reach half-maximal inhibition (IC50).

With `COC(=O)c1ccc2oc(NC(CC3CCCCC3)c3ccccn3)nc2c1` (stereo not shown) [Compound 92], the IC50 stood at 12 nM.

Compound `Fc1ccc(CC(Nc2nc3cc(Cl)ccc3o2)c2ccccn2)cc1` (stereo not shown) [Compound 93] showed an IC50 of 19 nM.

For `CC(C)c1ccc2oc(NC(Cc3ccc(F)cc3)c3ccccn3)nc2c1` (stereo not shown) [Compound 94], the IC50 was found to be 12 nM.

Take `FC(F)(F)c1ccc2oc(NC(CC3CCCCC3)c3ccccn3)nc2c1` (stereo not shown) [Compound 95]: the IC50 came to 1.2 nM.

With `Fc1ccc(CC(Nc2nc3cc(Cl)ccc3s2)c2ccccn2)cc1` (stereo not shown) [Compound 96], the IC50 was 27 nM.

With `Clc1ccc2sc(NC(CC3CCCCC3)c3ccccn3)nc2c1` (stereo not shown) [Compound 97], inhibition was half-maximal at 4 nM (IC50).

In turn, `CC(C)c1ccc2oc(NC(Cc3ccc(Cl)cc3)c3ccccn3)nc2c1` (stereo not shown) [Compound 98] had an IC50 of 29 nM.

Consider `Clc1ccc(CC(Nc2nc3cc(Cl)ccc3o2)c2ccccn2)cc1` (stereo not shown) [Compound 99], for which the IC50 amounted to 14 nM.

On to `CC(C)c1ccc2oc(NC(Cc3cccc(Cl)c3)c3ccccn3)nc2c1` (stereo not shown) [Compound 100], for which inhibition was half-maximal at 5 nM (IC50).

`COC(=O)c1ccc2oc(NC(Cc3ccc(F)cc3)c3ccccn3)nc2c1` (stereo not shown) [Compound 101] showed an IC50 of 27 nM.

In the case of `CN(C)S(=O)(=O)c1ccc2oc(NC(Cc3ccc(F)cc3)c3ccccn3)nc2c1` (stereo not shown) [Compound 103], the IC50 stood at 50 nM.

The compound `O=[N+]([O-])c1ccc(CC(Nc2nc3cc(Cl)ccc3o2)c2ccccn2)cc1` (stereo not shown) [Compound 104] gave an IC50 of less than 30 nM.

In turn, `Fc1ccc2oc(NC(Cc3cccc(Cl)c3)c3ccccn3)nc2c1` (stereo not shown) [Compound 105] came in with an IC50 of less than 30 nM.

Take `Fc1ccc(CC(Nc2nc3ccc(C(F)(F)F)cc3s2)c2ccccn2)cc1` (stereo not shown) [Compound 106]: the IC50 was less than 1000 nM.

`Fc1ccc(CC(Nc2nc3cc(C(F)(F)F)ccc3o2)c2ccccn2)cc1` (stereo not shown) [Compound 107]: the IC50 was 8 nM.

In turn, `Fc1ccc2oc(NC(CC3CCCCC3)c3ccccn3)nc2c1` (stereo not shown) [Compound 109] yielded an IC50 of 2 nM.

Turning to `Fc1ccc(CC(Nc2nc3cc(F)ccc3o2)c2ccccn2)cc1` (stereo not shown) [Compound 110], the IC50 is 21 nM.

As to `Fc1ccc2oc(NC(CC3CCCCC3)c3ccccn3)nc2c1F` (stereo not shown) [Compound 111], half-maximal inhibition (IC50) required 4 nM.

In turn, `Fc1cc2nc(NC(CC3CCCCC3)c3ccccn3)oc2cc1F` (stereo not shown) [Compound 112] had a half-inhibitory concentration (IC50) of 1 nM.

`Fc1ccc(CC(Nc2nc3cc(F)c(F)cc3o2)c2ccccn2)cc1` (stereo not shown) [Compound 113] displayed an IC50 of 24 nM.

In the case of `COc1ccc2oc(NC(Cc3ccc(F)cc3)c3ccccn3)nc2c1` (stereo not shown) [Compound 114], the IC50 was 11 nM.

On to `O=[N+]([O-])c1ccc2oc(NC(Cc3ccc(F)cc3)c3ccccn3)nc2c1` (stereo not shown) [Compound 115], for which the IC50 is less than 30 nM.

`Cc1nc(CC(Nc2nc3cc(C(C)C)ccc3o2)c2ccccn2)cs1` (stereo not shown) [Compound 116] came in with an IC50 of less than 100 nM.

Regarding `Cc1nc(CC(Nc2nc3cc(Cl)ccc3o2)c2ccccn2)cs1` (stereo not shown) [Compound 117], the IC50 was less than 100 nM.

The assay is the same for the next values; noted with them: Homo sapiens, Leukocyte, Table 5, Thiophene.
The compound `c1csc(C(CC2CCCCC2)Nc2nc3ccccc3o2)c1` (stereo not shown) [Compound 120] displayed an IC50 of 6.2 nM.

Staying with this assay, now noted: Homo sapiens, Leukocyte, Table 6, Methyloxadiazole; values with <: see footnote d, Table 1.
For `Cc1noc(C(Cc2ccccc2)Nc2nc3ccccc3s2)n1` (stereo not shown) [Compound 121], 1300 nM corresponded to half-maximal inhibition (IC50).

With `Cc1noc([C@H](Cc2ccccc2)Nc2nc3ccccc3s2)n1` [Compound 122], the IC50 came to 1800 nM.

`CCc1ccc2sc(N[C@@H](Cc3ccccc3)c3nc(C)no3)nc2c1` [Compound 123] came in with an IC50 of less than 1000 nM.

Compound `Cc1noc([C@H](CC2CCCCC2)Nc2nc3ccccc3s2)n1` [Compound 124] showed an IC50 of 120 nM.

For `Cc1ccc2oc(N[C@@H](CC3CCCCC3)c3nc(C)no3)nc2c1` [Compound 125, L-2-[2-Cyclohexyl-1-(3-methyl-1,2,4-oxadiazol-5-yl)ethyl]amino-5-methylbenzoxazole], inhibition was half-maximal at 28 nM (IC50).

As for `Cc1noc(C(Cc2ccc(F)cc2)Nc2nc3cc(C(C)C)ccc3o2)n1` (stereo not shown) [Compound 126], the IC50 was less than 300 nM.

Turning to `Cc1noc(C(Cc2csc(C)n2)Nc2nc3cc(C(C)C)ccc3o2)n1` (stereo not shown) [Compound 127], the IC50 is less than 1000 nM.

The same assay, now with this note: Homo sapiens, Leukocyte, Table 7, Ketones.
Consider `CC(=O)[C@H](Cc1ccccc1)Nc1nc2ccc(C(C)C)cc2s1` [Compound 128, 3-[(6-Isopropylbenzothiazol-2-yl)amino]-4-phenylbutan-2-one], for which half-maximal inhibition (IC50) required 350 nM.

Compound `CC(=O)[C@H](Cc1ccccc1)Nc1nc2ccccc2o1` [Compound 129] had an IC50 of less than 1000 nM.

In turn, `O=C(c1ccccc1)[C@H](Cc1ccccc1)Nc1nc2ccccc2o1` [Compound 130] showed an IC50 of less than 300 nM.

Compound `Cc1ccc2oc(N[C@@H](CC3CCCCC3)C(=O)c3ccccc3)nc2c1` [Compound 131] had an IC50 of less than 1000 nM.

For the compound `Cc1ccc2oc(N[C@@H](CC3CCCCC3)C(=O)c3nccn3C)nc2c1` [Compound 132], the IC50 was 23 nM.

The assay is the same for the next values; noted with them: Homo sapiens, Leukocyte, Table 8, Miscellaneous Acyclic; values with <: see footnote d, Table 1.
Turning to `CCOC[C@H](Cc1ccccc1)Nc1nc2cc(C(C)C)ccc2o1` [Compound 133], the IC50 stood at 16 nM.

In turn, `CCCOC[C@H](Cc1ccccc1)Nc1nc2cc(C(C)C)ccc2o1` [Compound 134] gave an IC50 of 220 nM.

Take `CCOC[C@H](Cc1ccccc1)Nc1nc2cc(Cl)ccc2o1` [Compound 135]: the IC50 was 29 nM.

In turn, `COCC(Cc1ccc(F)cc1)Nc1nc2cc(C(C)C)ccc2o1` (stereo not shown) [Compound 136] came in with an IC50 of less than 30 nM.

`CCOCC(Cc1ccc(F)cc1)Nc1nc2cc(C(C)C)ccc2o1` (stereo not shown) [Compound 137] displayed an IC50 of less than 30 nM.

The compound `CCCOCC(Cc1ccc(F)cc1)Nc1nc2cc(C(C)C)ccc2o1` (stereo not shown) [Compound 138] displayed an IC50 of less than 300 nM.

The compound `COCC(Cc1ccc(OC)cc1)Nc1nc2cc(C(C)C)ccc2o1` (stereo not shown) [Compound 139] yielded an IC50 of less than 30 nM.

Turning to `COCC(Cc1cccnc1)Nc1nc2cc(C(C)C)ccc2o1` (stereo not shown) [Compound 140], the IC50 was less than 1000 nM.

Turning to `COCC(Cc1csc(C)n1)Nc1nc2cc(C(C)C)ccc2o1` (stereo not shown) [Compound 141], the IC50 was less than 300 nM.

For the compound `CSC[C@H](Cc1cccc(Cl)c1)Nc1nc2cc(C(C)C)ccc2o1` [Compound 142], the IC50 is less than 30 nM.

For `CSCC(Cc1cccnc1)Nc1nc2cc(C(C)C)ccc2o1` (stereo not shown) [Compound 143], the IC50 is less than 1000 nM.

Consider `CSCC(Cc1csc(C)n1)Nc1nc2cc(C(C)C)ccc2o1` (stereo not shown) [Compound 145], for which the 50% inhibitory concentration (IC50) was less than 100 nM.

The compound `CC(C)c1ccc2oc(NC(Cc3ccccc3)CS(C)(=O)=O)nc2c1` (stereo not shown) [Compound 146] showed an IC50 of less than 30 nM.

With `CC(C)c1ccc2oc(NC(Cc3cccnc3)CS(C)(=O)=O)nc2c1` (stereo not shown) [Compound 147], the IC50 is less than 1000 nM.

`CC(C)c1ccc2oc(N[C@@H](Cc3ccccc3)CN(C)C)nc2c1` [Compound 150] gave an IC50 of less than 300 nM.

Regarding `CC(=O)NC[C@H](Cc1ccccc1)Nc1nc2cc(C(C)C)ccc2o1` [Compound 151], the IC50 is less than 100 nM.

Turning to `CC(C)c1ccc2oc(N[C@H](CNS(=O)(=O)N(C)C)Cc3ccccc3)nc2c1` [Compound 152], the IC50 was less than 100 nM.

Staying with this assay, now noted: Table 4, Pyridyl; values with <: see footnote d, Table 1.
`Clc1ccc2sc(NC(CC3CCCCC3)c3ccccn3)nc2c1` (stereo not shown) [Compound 102] displayed a concentration for half-maximal inhibition (IC50) of 4 nM.

On to `FC(F)(F)c1ccc2oc(NC(CC3CCCCC3)c3ccccn3)nc2c1` (stereo not shown) [Compound 108], for which half-maximal inhibition (IC50) required 1 nM.
